The results in this text go back to US11305021B2, “Membrane-lytic block copolymers” (UNIVERSITY OF WASHINGTON, priority 2016, dated 2022).

Data set [1] deals with HeLa, KB, A549 and Z310 cells. Kind of data set: GFP transfection. In kind it is cell-based. The note with it: GFP plasmid. On the procedure: The transfection with GFP (green fluorescence plasmid) on different cell lines was the same as that with luciferase plasmid. For analysis, cells were washed with PBS, trypsinized and pelleted at 300×g for 5 min at 4° C. The pellet was resuspended in 0.3 mL propidium iodide (PI) solution (1 μg/mL in 0.5% BSA in PBS), kept on ice and analyzed using flow cytometry, MACSQuant Analyzer (Miltenyi Biotec Inc., Auburn, Calif.). Intact cells were identified using the forward and side scatter data. The resulting cell population was gated into GFP+/PI+, GFP+/PI−, GFP−/PI+ and GFP−/PI− based on the green fluorescence and PI intensity from the control samples (cells transfected without the polymers but DNA only) and reported as the mean percentage of cell population that is GFP+/PI− including standard deviation (SD). All experiments were conducted in triplicate.

The next data set deals with human red blood cells. Kind of data set: Hemolysis assay (acid-triggered membrane-lytic activity). Type of data set: cell-based. As for the experimental part:
Hemolysis assay was used to evaluate the acid-triggered membrane-lytic activity of the synthesized materials at pH 7.4 (extracellular pH) and 5.7 (endosomal pH). Briefly, plasma from human blood was removed by centrifugation. The red blood cells were washed three times with 150 mM NaCl, and resuspended into phosphate buffer (PB) at pH 7.4 or 5.7. The polymers at various concentrations ([…]) and 1% Triton X-100 as control, were added to the RBC suspensions in a 96-well conical plate and was allowed to incubate for 1 h at 37° C. After centrifugation, the released hemoglobin within the supernatant was measured by UV at 541 nm. Percent hemolysis was calculated relative to Triton X-100. Experiments were performed in triplicate.

Data set [2] deals with HeLa, KB, A549 and Z310 cells. Kind of data set: In vitro transfection with luciferase plasmid. In kind it is cell-based. As for the experimental part: HeLa, KB, Z310 and A549 cells were seeded at a density of 25,000 cells/well in complete cell culture medium in a 24-well plate. Cells were firstly incubated at 37° C., 5% CO2 for 24 h. Polyplexes were prepared at different N/P ratios using 0.5 μg of pCMV-Luc2 pDNA in 10 μL total volume. Each sample was diluted to 200 μL with complete cell culture medium. The cells were rinsed once with PBS, followed by the addition of transfection solution. After incubation for 4 h, cells were washed with PBS twice and the polyplexes solution was replaced with complete cell culture medium. After additional 20 h incubation, luciferase activity was quantified with a luciferase assay kit (Promega Corp, Fitchburg, Wis.) according to the manufacturer's instruction, except that a freeze-thaw cycle at −80 OC was included after the addition of the lysis buffer to ensure complete cell lysis. Luminescence intensity was measured on the plate reader with integration for 1 s. The total protein content in each well was measured by a BCA Protein Assay Kit (Thermo Scientific, Rockford, Ill.) according to the manufacturer's instruction so that the luciferase activity was normalized to the total protein content in each well. Each sample was tested with a sample size (n)=3. The N/P ratio used for bPEI is 5, which was previous determined to show optimized transfection efficiency. […]

The nature of data set [3]: Assembly behavior of VIPER by TEM imaging and DLS analysis. Type of data set: physicochemical. The text has this: To verify this hypothesized mechanism, the assembly behavior of VIPER at pH 7.4 and pH 5.7 was monitored by both transmission electron microscopy (TEM) imaging and dynamic light scattering (DLS) analysis. VIPER assembles into uniform spherical nanoparticles with diameter around 30 nm at pH 7.4 (FIGS. 2A and C for TEM and DLS, respectively).
The morphology of polymers and polyplexes under dried state were imaged on a JEOL 1140 TEM at an acceleration voltage of 100 kV. In order to observe the morphology of polymer assemblies under different pHs, the polymer solutions (1 mg/mL, in distilled water) were diluted with PB to pH 7.4 and 5.7. Then the resulting solutions (10 μL) were deposited on the top of the 400-mesh formvar/copper grids and incubated at room temperature for 30 min. After staining with uranyl acetate, the grids were allowed to air dry overnight. The preparation of polyplexes samples were the same as polymer samples.

Entries after “also recorded” stand apart in the source; their conditions may differ.

In the case of “P(OEGMA11-DMAEMA56)-b-p(DIPAMA33-PDSEMA-g-melittin)1) [VIPER]”, in data set [1], the “fold more transfected cells compared to CP” value was 13- to 60 fold and the “fold more transfected cells compared to bPEI” value is 11- to 46 fold. In data set [1] (range over cell lines), the “transfection efficiency, GFP+ cells” value was 36-77%. In addition, in the data set with human red blood cells (pH 5.7), the “concentration for 50% lysis” value is 30 µg/mL and the “concentration for complete lysis” value came out at 120 µg/mL. The cell lysis entry in the data set on human red blood cells (pH 7.4, VIPER concentrations as high as 240 μg/mL) is recorded as “no significant cell lysis; also recorded: minimal membrane-lytic activity”. Besides, in data set [2] (HeLa, KB and Z310 cells), the “transfection efficiency compared to optimized LF formulations” value is reported as “improved transfection efficiency”. Also, the “luciferase activity compared to CP and bPEI” value in data set [2] (all tested cell lines) is “orders of magnitude higher”. For the same substance, the assemblies observed entry in data set [3] (pH 5.7) is reported as “no assemblies were observed”. Further, the diameter of nanoparticles result in data set [3] (pH 7.4) was “around 30 nm”.
